We go through 4 molecules from the supplement of paper PMC4862054.

Holding throughout (details): incubation time: 72 h
Assay [1] deals with MDA-MB-468. The assay is described as follows: normalised response (% of control), CellTiter-Glo; higher = more viable cells (100 = DMSO, 0 = benzethonium chloride kill control). The method, then:
(§1)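 DSRT, 72 h incubation, CellTox Green / CellTiter-Glo readout. Signal is normalised to DMSO and benzethonium chloride controls. Value is the normalised response at the highest dose.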

Assay [2] deals with HCC1143. Described as above. On the procedure:
as §1

The subject of assay [3] is DU-4475. The description is as above. On the procedure:
as §1

In assay [4] the test system is MDA-MB-453. The description is as above. On the procedure:
as §1

Assay [5] relates to CAL-51. The assay is described as above. On the procedure:
as §1

In assay [6] the test system is BT-474. The description is as above. The method, then: as §1
Assay [7] has as its system MDA-MB-436. Described as above. On the procedure: as §1
For assay [8], the system named is CAL-148. The description is as above. On the procedure:
as §1

Assay [9] deals with BT-549. Described as above. On the procedure: as §1
Assay [10] deals with MDA-MB-231. The description is as above. On the procedure:
as §1

The test system of assay [11] is Hs578T. The description is as above. On the procedure:
as §1

Assay [12] concerns CAL-120. The assay is described as above. The method, then: as §1
The next assay concerns SK-BR-3. Described as above. On the procedure:
as §1

The subject of assay [13] is HDQ-P1. The assay is described as above. The method, then: as §1
The subject of assay [14] is MCF-10A. The description is as above. On the procedure: as §1
In assay [15] the test system is HCC1599. Described as above. On the procedure:
as §1

The test system of assay [16] is CAL-85-1. Described as above. On the procedure: as §1
For assay [17], the system named is MFM-223. The description is as above. On the procedure: as §1
Assay [18] concerns HCC1937. Described as above. On the procedure:
as §1

The subject of assay [19] is MDA-MB-468. The experiment in a line: normalised response (% of control), CellTox Green; higher = less cell death (100 = DMSO, 0 = benzethonium chloride kill control). In outline:
(§2)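 Plates were normalised with 0.1 % DMSO as 100 and a positive kill control as 0. Breast cancer cell lines in 20 µl suspension had been seeded into 384-well plates with compound at 5 concentrations in 10-fold steps over a compound-specific 10,000-fold range, incubated 72 h, and read for CellTox Green fluorescence (485/520 nm) followed by CellTiter-Glo luminescence. Each value is the normalised signal at a single concentration.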

The test system of assay [20] is HCC1143. The assay is described as above. The essentials: as §2
The test system of assay [21] is DU-4475. The description is as above. In outline: as §2
The test system of assay [22] is MDA-MB-453. Described as above. In outline:
as §2

In assay [23] the test system is CAL-51. The assay is described as above. In outline:
as §2

Assay [24] has as its system BT-474. The assay is described as above. In outline:
as §2

Assay [25] has as its system MDA-MB-436. The description is as above. In outline:
as §2

In assay [26] the test system is CAL-148. The description is as above. The essentials: as §2
For assay [27], the system named is BT-549. The description is as above. The essentials:
as §2

Assay [28] deals with MDA-MB-231. Described as above. The essentials:
as §2

Assay [29] deals with Hs578T. Described as above. In outline:
as §2

Assay [30] has as its system CAL-120. Described as above. The essentials:
as §2

Assay [31] relates to HDQ-P1. Described as above. In outline: as §2
The subject of assay [32] is MCF-10A. The assay is described as above. The essentials: as §2
For assay [33], the system named is HCC1599. Described as above. The essentials: as §2
The subject of assay [34] is CAL-85-1. The description is as above. The essentials: as §2
Assay [35] concerns MFM-223. The assay is described as above. The essentials:
as §2

Assay [36] relates to HCC1937. Described as above. The essentials: as §2
Assay [37] concerns DU-4475. The experiment in a line: normalised viability (% of control), CellTiter-Blue; higher = more viable cells (about 100 = DMSO control). On the procedure: (§3)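 DSRT, CellTiter-Blue viability, 72 h incubation. Signal is normalised to DMSO and benzethonium chloride controls. Value is the normalised response at dose 6.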
Assay [38] relates to MDA-MB-453. Described as above. The method, then:
as §3

For assay [39], the system named is CAL-51. Described as above. On the procedure: as §3
In assay [40] the test system is CAL-148. The assay is described as above. The method, then: as §3
Assay [41] relates to HDQ-P1. The assay is described as above. On the procedure:
as §3

The subject of assay [42] is CAL-85-1. Described as above. On the procedure:
as §3

Take `COC(=O)c1ccc2c(c1)NC(=O)/C2=C(\Nc1ccc(N(C)C(=O)CN2CCN(C)CC2)cc1)c1ccccc1` [Nintedanib] (10000 nM): the normalised response stood at 4.97% in the assay with MDA-MB-468 [1]; 48% in the assay on HCC1143 [2]; 84.8% in the assay on DU-4475 [3]; 73.4% in the assay with MDA-MB-453 [4]; 2.78% with CAL-51 [5]; 3.88% in the assay with BT-474 [6]. Moreover, the normalised response with MDA-MB-436 [7] came to 17.1%; with CAL-148 [8], 90.8%; with BT-549 [9], 0.72%; in the assay with MDA-MB-231 [10] it was 1.73%; in the assay on Hs578T [11], 82.3%; in the assay on CAL-120 [12], 52.1%. The normalised response in the assay with SK-BR-3 is 71%; in the assay with HDQ-P1 [13], 40.1%; with MCF-10A [14] it was 40.1%; with HCC1599 [15], 84%; in the assay on CAL-85-1 [16], 87.7%; with MFM-223 [17], 50.6%. Besides, the normalised response in the assay on HCC1937 [18] was 27.6%; in the assay with MDA-MB-468 [19], 15.6%; with HCC1143 [20], 87.2%; with DU-4475 [21], 96.7%; in the assay on MDA-MB-453 [22], 99.7%; in the assay on CAL-51 [23] it was -13%. Besides, the normalised response in the assay on BT-474 [24] is -15.7%; in the assay on MDA-MB-436 [25] it was 42.1%; in the assay with CAL-148 [26], 79.6%; in the assay on BT-549 [27], 27.7%; in the assay on MDA-MB-231 [28], -69.5%; in the assay on Hs578T [29] it was 104%. In addition, the normalised response was 77.8% in the assay on CAL-120 [30]; 61.2% in the assay with HDQ-P1 [31]; 31.4% with MCF-10A [32]; 99.9% in the assay with HCC1599 [33]; 85.3% in the assay on CAL-85-1 [34]; 92.7% with MFM-223 [35]. In addition, the normalised response in the assay on HCC1937 [36] was determined as 14.2%.
As for `O=C(Nc1cccnc1)N1CCC(Cc2cccc(Oc3ccc(C(F)(F)F)cn3)c2)CC1` [PF-3845] (300 nM), the normalised viability in the assay with DU-4475 [37] amounted to 95.4%; with MDA-MB-453 [38], 98.4%; with CAL-51 [39] it was 97.9%; in the assay on CAL-148 [40], 103%; in the assay with HDQ-P1 [41], 127%; in the assay with CAL-85-1 [42] it was 93%.
With `Cc1[nH]c2ccccc2c1CCNCc1ccc(/C=C/C(=O)NO)cc1` [Panobinostat] (30 nM), the normalised viability in the assay with DU-4475 [37] worked out at 27.3%; in the assay with MDA-MB-453 [38], 3.77%; in the assay with CAL-51 [39] it was 68.8%; in the assay with CAL-148 [40], 21.1%; in the assay with HDQ-P1 [41], 62.8%; in the assay on CAL-85-1 [42] it was 42.8%.
In the case of `COc1cc2c(NC3CCN(C(C)C)CC3)nc(N3CCC(F)(F)CC3)nc2cc1OCCCN1CCCC1` [UNC0642] (10000 nM), the normalised response in the assay on MDA-MB-468 [1] came out at 3.41%; with HCC1143 [2], 70.4%; with DU-4475 [3], 76.3%; in the assay on MDA-MB-453 [4], 5.97%; with CAL-51 [5], 79%; in the assay with BT-474 [6], 33.3%. The normalised response with MDA-MB-436 [7] amounted to 19.1%; in the assay with CAL-148 [8], 32.4%; in the assay on BT-549 [9], 56.3%; in the assay on MDA-MB-231 [10], 18.8%; in the assay on Hs578T [11], 91.6%; with CAL-120 [12], 60.9%. Moreover, the normalised response amounted to 29.6% in the assay on SK-BR-3; 48.9% in the assay on HDQ-P1 [13]; 40.9% with MCF-10A [14]; 94.2% with HCC1599 [15]; 5.34% with CAL-85-1 [16]; 32.9% with MFM-223 [17]. In addition, the normalised response in the assay on HCC1937 [18] is 56.7%; in the assay on MDA-MB-468 [19], -31.3%; in the assay with HCC1143 [20] it was 76.4%; in the assay on DU-4475 [21], 95.5%; in the assay with MDA-MB-453 [22], 43.1%; in the assay with CAL-51 [23] it was 113%. The normalised response in the assay on BT-474 [24] is -7.97%; with MDA-MB-436 [25] it was 44%; in the assay with CAL-148 [26] it was 44.5%; with BT-549 [27] it was 104%; in the assay on MDA-MB-231 [28], -38.7%; with Hs578T [29], 122%. Moreover, the normalised response in the assay on CAL-120 [30] was 19.6%; with HDQ-P1 [31], 93.1%; in the assay with MCF-10A [32], 57%; in the assay on HCC1599 [33], 87.4%; in the assay on CAL-85-1 [34] it was -18.1%; with MFM-223 [35], 81.9%. Also, the normalised response with HCC1937 [36] was found to be 29.2%.
